Test results from PMC6779907, “Bengamides display potent activity against drug-resistant Mycobacterium tuberculosis” (Scientific Reports, 2019).

What was measured:
Format in all cases: biochemical
HsMetAP1b [1] = molecular target: T1, HsMetAP1b (Homo sapiens, UniProt P53582); assay: fluorescence, substrate hydrolysis; conditions: room temperature; metal not given
T1 construct: gene METAP1; expressed in E. coli and purified

EfMetAP1b [2] = molecular target: T2, EfMetAP1b (Enterococcus faecalis, UniProt Q832M5); assay: fluorescence, substrate hydrolysis; conditions: room temperature; metal not given
T2 construct: gene map; expressed in E. coli and purified
T2 sequence (Q832M5 1-254): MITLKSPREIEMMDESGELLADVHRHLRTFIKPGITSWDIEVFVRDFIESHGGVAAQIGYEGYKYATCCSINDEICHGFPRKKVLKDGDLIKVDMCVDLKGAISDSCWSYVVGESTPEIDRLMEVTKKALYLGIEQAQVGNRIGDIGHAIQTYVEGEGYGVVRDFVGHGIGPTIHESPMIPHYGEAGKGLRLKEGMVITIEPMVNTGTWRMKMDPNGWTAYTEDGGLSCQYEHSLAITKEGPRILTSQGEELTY

MtMetAP1c [3] = molecular target: T3, MtMetAP1c (Mycobacterium tuberculosis, UniProt P9WK19); conditions: room temperature; metal not given
T3 construct: gene map

MtMetAP1c [4] = molecular target: T3, MtMetAP1c; assay: fluorescence, hydrolysis of methionyl aminomethylcoumarin
HsMetAP1b [5] = molecular target: T1, HsMetAP1b; assay: as above
EfMetAP1b [6] = molecular target: T2, EfMetAP1b; assay: as above

T3 sequence (P9WK19 whole entry, looked up): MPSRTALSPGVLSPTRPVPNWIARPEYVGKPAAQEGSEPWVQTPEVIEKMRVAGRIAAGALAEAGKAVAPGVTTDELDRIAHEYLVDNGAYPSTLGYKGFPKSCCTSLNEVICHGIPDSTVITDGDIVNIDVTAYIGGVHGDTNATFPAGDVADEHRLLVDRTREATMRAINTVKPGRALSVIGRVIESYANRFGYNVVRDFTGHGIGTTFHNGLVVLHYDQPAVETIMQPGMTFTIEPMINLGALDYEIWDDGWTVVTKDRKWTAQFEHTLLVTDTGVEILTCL

Structure (SMILES) | fluorescence, substrate hydrolysis (HsMetAP1b [1]) | fluorescence, substrate hydrolysis (EfMetAP1b [2]) | fluorescence, substrate hydrolysis (MtMetAP1c [3]) | inhibition at 50 µM (MtMetAP1c [4]) | inhibition at 50 µM (HsMetAP1b [5]) | inhibition at 50 µM (EfMetAP1b [6])
CSCC[C@H](N)C(=O)Nc1ccc2c(C)cc(=O)oc2c1 [methionyl aminomethylcoumarin] | enzymatic activity was monitored by fluorescence readings following hydrolysis of the fluorogenic substrate, methionyl aminomethylcoumarin | enzymatic activity was monitored by fluorescence readings following hydrolysis of the fluorogenic substrate, methionyl aminomethylcoumarin | enzymatic activity was monitored by fluorescence readings following hydrolysis of the fluorogenic substrate, methionyl aminomethylcoumarin | – | – | –
CCCCCCCCCCCCCC(=O)O[C@H]1CC[C@H](NC(=O)[C@H](OC)[C@H](O)[C@@H](O)[C@H](O)/C=C/C(C)C)C(=O)N(C)C1 [F12, bengamide B] | – | – | – | 72.8% | 84.7% | 83.3%
